From patent publication US20250207109A1, “ENGINEERED SPLIT DHFR-BASED METHODS AND SYSTEMS FOR SELECTING CELLS THAT HAVE STABLY ACQUIRED A HETEROLOGOUS POLYNUCLEOTIDE” (DNA Twopointo, Inc., priority 2022, published 2025)

What was measured:
Assay type in all cases: cell-based, human
FKBP12.6tr_F36V = experiment: Split DHFR complementation assay to show rimiducid-dependent dimerization; details: cells expressing FKBP12.6tr_F36V-DHFR fragment fusions; rimiducid 100 nM, methotrexate 0.2 μM
Source text: The Split DHFR concept was employed as the basis of a test of whether a fragment of the human protein FKBP12.6 could dimerize in the presence of rimiducid. For this purpose, an F36V substitution was introduced into FKBP12.6 in an effort to render it sensitive to rimiducid-dependent dimerization as is the case for the paralogous protein FKBP12. See Clackson T, Yang W, Rozamus L W, Hatada M, Amara J F, Rollins C T, Stevenson L F, Magari S R, Wood S A, Courage N L, Lu X, Cerasoli F, Gilman M, Holt D A. Redesigning an FKBP-ligand interface to generate chemical dimerizers with novel specificity. Proc Natl Acad Sci USA. 1998; 95 (18): 10437-42. doi: 10.1073/pnas.95.18.10437.
The truncated version of FKBP12.6 carrying the F36V substitution (SEQ ID NO: 192) was fused at its carboxy terminus to the two fragments of murine DHFR as in Example 1, with one of the fragments bearing the L22F and F31S substitutions to confer methotrexate resistance (SEQ ID NOs: 190 and 191). […]
(§1) At left is the result for cells expressing the DHFR fragments fused to the P7A/P8A heterodimerizing coiled-coil peptides. […] Untransfected cells were analyzed under identical conditions as a control (at right).

Jurkat T lymphoma cells = experiment: Methotrexate selection of Jurkat cells co-transfected with pairs of transposons encoding mouse split DHFR fragments, flow cytometry for mTagBFP2/plobRFP; details: 0.1 μM methotrexate; compared with coiled coil pairs
Source text: Transgenes encoding the six DHFR fusion proteins regulated by the EF1-alpha promoter were each placed in a Leap-In transposon vector that also included a transgene encoding a fluorescent protein. For the transposons expressing the amino-terminal piece of DHFR, the fluorescent protein was mTagBFP2. For the transposons expressing the carboxy-terminal piece, the fluorescent protein was plobRFP. These fluorescent protein transgenes were included so that cells carrying the two kinds of transposons could be readily identified by flow cytometry or fluorescent microscopy.
Jurkat T lymphoma cells were transfected with the appropriate pairs of transposons (i.e., transposons encoding both an amino- and carboxy-terminal piece of DHFR fused to leucine zipper or coiled coil sequences that should associate stably with one another). The ThermoFisher Neon® electroporator was used with 100 μl tips and three pulses of 1350V, each pulse 10 mS in length. […]
Successful methotrexate selection of cells carrying both transfected transposons was evident by the fact that the majority of cells expressed both mTagBFP2 and plobRFP. The cells were analyzed at ten days or six weeks after transfection as indicated.

Jurkat cells = experiment: Split DHFR complementation assay, methotrexate selection of Jurkat cells expressing DHFR fragment fusion proteins; details: 0.2 μM methotrexate, two weeks; rimiducid 100 nM for FKBP12.6tr pair
Source text: The truncated version of FKBP12.6 carrying the F36V substitution (SEQ ID NO: 192) was fused at its carboxy terminus to the two fragments of murine DHFR as in Example 1, with one of the fragments bearing the L22F and F31S substitutions to confer methotrexate resistance (SEQ ID NOs: 190 and 191).
As a control, the P7A/P8A pair of DHFR fragment fusion proteins (involving SEQ ID Nos: 188 and 189) was also used. Whereas the P7A/P8A pair of constructs co-expressed the DHFR fragments with a red fluorescent protein (RFP; plobRFP) or a blue fluorescent protein (BFP; mTagBFP2), both FKBP12.6 tr transposons carried a BFP transgene.
Jurkat cells were co-transfected by electroporation (ThermoFisher Neon; 100 μl tips; 1350V, three 10 ms pulses) with pairs of plasmids carrying transposons encoding the two DHFR fragments (7.5 μg of each) together with mRNA encoding the Leap-In Transposase® enzyme (2 μg). The cells were plated in RPMI-1640 medium supplemented with fetal bovine serum (10% vol/vol) and methotrexate (0.2 μM). Rimiducid at 100 nM was added to the medium of cells that had been transfected with the FKBP12.6tr pair of plasmids.
as §1

CC[C@H](C(=O)N1CCCC[C@H]1C(=O)O[C@H](CCc1ccc(OC)c(OC)c1)c1cccc(OCC(=O)NCCNC(=O)COc2cccc([C@@H](CCc3ccc(OC)c(OC)c3)OC(=O)[C@@H]3CCCCN3C(=O)[C@@H](CC)c3cc(OC)c(OC)c(OC)c3)c2)c1)c1cc(OC)c(OC)c(OC)c1 [rimiducid]
rimiducid dependence of survival in methotrexate (FKBP12.6tr_F36V): the cells failed to thrive when the drug was removed

leucine zipper pair of constructs: GCN4 Leucine Zipper-Linker-Mouse DHFR (1-105; L22F/F31S) and (106-186) fusion pair
average level of red and blue fluorescence of selected cells (Jurkat T lymphoma cells): higher average level of both red and blue fluorescence than the pairs involving the coiled coil sequences

B1: P7A/P8A coiled coil fusion proteins: P7A / P8A Coiled Coil-Linker-Mouse DHFR (1-105; L22F/F31S) and (106-186) fusion pair (protein)
chain 1: MGEIAALEAKNAALKAEIAALEAKNAALKAGCGGGGSGGGGSVRPLNCIVAVSQNMGIGKNGDFPWPPLRNESKYFQRMTTTSSVEGKQNLVIMGRKTWFSIPEKNRPLKDRINIVLSRELKEPPRGAHFLAKSLDDALRLIEQPEL
chain 2: MKIAALKAENAALEAKIAALKAENAALEAGGCGGGGSGGGGSASKVDMVWIVGGSSVYQEAMNQPGHLRLFVTRIMQEFESDTFFPEIDLGKYKLLPEYPGVLSEVQEEKGIKYKFEVYEKKD
methotrexate resistance / survival of transfected cells (Jurkat cells): conferred methotrexate resistance on the transfected cells
